In the assay the target is T1, human CCR7 (Homo sapiens, UniProt P32248).
T1 construct: expressed in transfected cells
T1 sequence (P32248 25-378): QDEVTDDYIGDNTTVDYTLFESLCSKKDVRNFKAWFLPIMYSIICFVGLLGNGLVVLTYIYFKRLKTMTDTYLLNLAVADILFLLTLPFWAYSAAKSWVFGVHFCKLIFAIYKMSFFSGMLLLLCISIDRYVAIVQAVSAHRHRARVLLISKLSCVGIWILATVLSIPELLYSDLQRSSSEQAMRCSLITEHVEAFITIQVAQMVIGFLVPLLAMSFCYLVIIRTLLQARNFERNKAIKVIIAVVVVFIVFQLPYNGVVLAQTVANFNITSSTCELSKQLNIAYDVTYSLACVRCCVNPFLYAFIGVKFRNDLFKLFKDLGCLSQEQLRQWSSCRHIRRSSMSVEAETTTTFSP
Description: CCL19-induced calcium mobilization assay, U87.CD4 cells expressing CCR7. It is filed as cell-based. Particulars: for IC50: CCL19-induced calcium signaling, read-out: IC50 [μM] block CCL19 induced calcium signaling; for Decoy – 0 Active – 1: classification of tested compounds as decoy or active. On the procedure: U87.CD4 cells that stably express either human CCR7, CXCR2, CCR5 or CXCR4 were seeded (20,000 cells/well) in gelatin-coated black-walled polystyrene 96-well plates with clear bottom and incubated overnight at 37°C and 5% CO2. […] Culture medium was removed, and cells were incubated for 45 min at room temperature in the dark. […] Exactly the same protocol was used to record calcium responses in Chinese hamster ovary (CHO)-K1 cells, upon stimulation with adenosine triphosphate (ATP, purchased from Sigma).
In general terms: Calcium assays in cells follow changes in intracellular calcium, usually with a dye or a luminescent sensor.

Molecules are shown by their SMILES. Bounds are passed on as bounds.

Broadly, the IC50 is the point on the concentration scale where inhibition reaches its midpoint.

Turning to `CC(C)[C@@H]1OCCC[C@@H]1Nc1cc(N2CC[C@H](OCc3ccccn3)C2)ncn1` [C084, CC(C)[C@@H]1OCCC[C@@H]1Nc1cc(N2CC[C@H](OCc3ccccn3)C2)ncn1], the IC50 is above 50 µM and the “Decoy – 0 Active – 1” value worked out at 0.
With `CN(C)S(=O)(=O)c1ccc(-c2nnc(C(=O)NCc3ccccn3)o2)cc1` [C085, CN(C)S(=O)(=O)c1ccc(-c2nnc(C(=O)NCc3ccccn3)o2)cc1], the IC50 was above 50 µM and the “Decoy – 0 Active – 1” value is listed as 0.
On the same counts, the results for `O=C([C@@H]1CCCO1)N1CCc2ncnc(NCCc3ccco3)c2CC1` [C086, O=C([C@@H]1CCCO1)N1CCc2ncnc(NCCc3ccco3)c2CC1] are above 50 µM and 0.
For the molecule `O=C(c1ccnc(N[C@H]2CCCN(Cc3cccnc3)C2)c1)N1CCCC1` [C087, O=C(c1ccnc(N[C@H]2CCC[N@@H+](Cc3cccnc3)C2)c1)N1CCCC1], the IC50 was above 50 µM and the “Decoy – 0 Active – 1” value is 0.
On the same counts, the results for `Cc1ccc(CNC(=O)c2nnc(-c3ccc(S(=O)(=O)N(C)C)cc3)o2)o1` [C088, Cc1ccc(CNC(=O)c2nnc(-c3ccc(S(=O)(=O)N(C)C)cc3)o2)o1] are above 50 µM and 0.
As for `CN(C)S(=O)(=O)c1ccc(-c2nnc(C(=O)NCc3ccccc3)o2)cc1` [C089, CN(C)S(=O)(=O)c1ccc(-c2nnc(C(=O)NCc3ccccc3)o2)cc1], the IC50 is above 50 µM and the “Decoy – 0 Active – 1” value stood at 0.
As for `Cc1nc(CCCC(=O)N[C@H]2CCN(C(C)C)C2=O)cs1` [C090, Cc1nc(CCCC(=O)N[C@H]2CCN(C(C)C)C2=O)cs1], the IC50 is above 50 µM and the “Decoy – 0 Active – 1” value is recorded as 0.
On the same counts, the results for `Cc1ccc(CNC(=O)c2nnc(-c3ccc(S(=O)(=O)N4CCCC4)cc3)o2)o1` [C091, Cc1ccc(CNC(=O)c2nnc(-c3ccc(S(=O)(=O)N4CCCC4)cc3)o2)o1] are above 50 µM and 0.
On to `C[C@@H](NC(=O)c1nnc(-c2ccc(S(=O)(=O)N(C)C)cc2)o1)c1ccccn1` [C092, C[C@@H](NC(=O)c1nnc(-c2ccc(S(=O)(=O)N(C)C)cc2)o1)c1ccccn1], for which the IC50 is above 50 µM and the “Decoy – 0 Active – 1” value amounted to 0.
On the same counts, the results for `Cc1c(C(=O)NCC2CC2)sc2ncnc(NCCc3ccccn3)c12` [C093, Cc1c(C(=O)NCC2CC2)sc2ncnc(NCCc3ccccn3)c12] are above 50 µM and 0.
On the same counts, the results for `COc1cccc(-c2cc(C(=O)NCc3ccco3)no2)c1` [C094, COc1cccc(-c2cc(C(=O)NCc3ccco3)no2)c1] are above 50 µM and 0.
On the same counts, the results for `O=C(NCc1ccccn1)c1cn2c(n1)C(=O)N(CC1CC1)CC2` [C095, O=C(NCc1ccccn1)c1cn2c([nH+]1)C(=O)N(CC1CC1)CC2] are above 50 µM and 0.
As for `O=C(CCCc1ccccc1)N[C@H]1CCN(CC(F)(F)F)C1=O` [C096, O=C(CCCc1ccccc1)N[C@H]1CCN(CC(F)(F)F)C1=O], the IC50 was above 50 µM and the “Decoy – 0 Active – 1” value is recorded as 0.
On the same counts, the results for `Cc1cc(NCCc2nccs2)nc(-c2cccc([N+](=O)[O-])c2)n1` [C097, Cc1cc(NCCc2nccs2)nc(-c2cccc([N+](=O)[O-])c2)n1] are above 50 µM and 0.
On the same counts, the results for `CNC(=O)c1cccc(NC(=O)N2CC[C@@H](c3ccccc3)C2)c1C` [C098, CNC(=O)c1cccc(NC(=O)N2CC[C@@H](c3ccccc3)C2)c1C] are above 50 µM and 0.
As for `Cc1c(NC(=O)CN(C)Cc2ccc(F)cc2)cccc1C(=O)N(C)C` [C099, Cc1c(NC(=O)C[N@H+](C)Cc2ccc(F)cc2)cccc1C(=O)N(C)C], the IC50 is above 50 µM and the “Decoy – 0 Active – 1” value worked out at 0.
As to `CNC(=O)c1cccc(NC(=O)c2cn(Cc3ccccn3)nn2)c1C` [C100, CNC(=O)c1cccc(NC(=O)c2cn(Cc3ccccn3)nn2)c1C], the IC50 was above 50 µM and the “Decoy – 0 Active – 1” value is listed as 0.

The values above are taken from paper PMC8972196, “A Set of Experimentally Validated Decoys for the Human CC Chemokine Receptor 7 (CCR7) Obtained by Virtual Screening” (Frontiers in Pharmacology, 2022).
